We go through 15 molecules from patent publication US7977352B2, “Triazolopyridine compounds useful for the treatment of degenerative and inflammatory diseases” (Galapagos NV, priority 2006, dated 2011).

The subject of assay [1] is MMP1 expression by activated synovial fibroblasts (RASFs). The assay is described as follows: MMP assay: MMP1 expression by RASFs triggered with TNF-α (MMP1 ELISA). It counts as cell-based. Particulars: Fibroblast, 48 h, TNF-α trigger 10 ng/mL, semi-quantitative score, read-out: REDUCTION MMP1/TNFa. The procedure: A 384-well format ELISA for measurement of MMP1 is developed. Various primary antibodies are tested, as well as various ELISA protocols. The following protocol is developed and validated to measure MMP1 levels in SF supernatant in 384 well plates: white Lumitrac 600 384 well plates (Greiner) are coated with 2 μg/mL anti-MMP1 antibody MAB1346 (Chemicon). The antibody is diluted in buffer 40 (1.21 g Tris base (Sigma), 0.58 g NaCl (Calbiochem) and 5 mL 10% NaN3 (Sigma) in 1 L milliQ water and adjusted to pH 8.5). After overnight incubation at 4° C., plates are washed with PBS (80 g NaCl, 2 g KCl (Sigma), 11.5 g Na2HPO4.7H2O and 2 g KH2PO4 in 10 L milliQ; pH 7.4) and blocked with 100 μL/well Casein buffer (2% Casein (VWR International) in PBS). Next day, casein buffer is removed from ELISA plates and replaced by 50 μL/well EC buffer (4 g casein, 2.13 g Na2HPO4 (Sigma), 2 g bovine albumin (Sigma), 0.69 g NaH2PO4.H2O (Sigma), 0.5 g CHAPS (Roche), 23.3 g NaCl, 4 mL 0.5 M EDTA pH 8 (Invitrogen), 5 mL 10% NaN3 in 1 L milliQ and adjusted to pH 7.0). 0.25 mM DTT (Sigma) is added to the thawed sample plates. After removal of the EC buffer, 20 μL of sample is transferred to the ELISA plates. After overnight incubation at 4° C. plates are washed twice with PBS and once with PBST (PBS with 0.05% Tween-20 (Sigma)) and incubated with 35 μL/well biotinylated anti-MMP1 antibody solution (R&D). This secondary antibody is diluted in buffer C (0.82 g NaH2PO4.H2O, 4.82 g Na2HPO4, 46.6 g NaCl, 20 g bovine albumin and 4 mL 0.5M EDTA pH 8 in 2 L milliQ and adjusted to pH 7.0) at a concentration of 5 μg/mL. After 2 h of incubation at RT, plates are washed as described above and incubated with 50 μL/well streptavidin-HRP conjugate (Biosource). Streptavidin-HRP conjugate is diluted in buffer C at a concentration of 0.25 μg/mL. After 45 min, plates are washed as described above and incubated for 5 min with 50 μL/well BM Chem ELISA Substrate (Roche). Readout is performed on the Luminoscan Ascent Luminometer (Labsystems) with an integration time of 200 msec or with an Envision reader (Perkin Elmer).
SFs were acquired at passage 1 from a commercial supplier (Cell applications, Inc.). SFs are cultured in DMEM supplemented with 10% heat-inactivated FBS, 1× penicillin/streptomycin (Invitrogen) at 37° C., 10% CO2 until passage 6. Aliquots of the cells are frozen and cryopreserved in liquid nitrogen. Starting from a cryopreserved aliquot, cells are further expanded by sub-culturing cells at 1/3 ratio every week. Cells between passage 10 and 12 are routinely used in compound testing according to following protocol.
Starting from the compound master stocks (all at 10 mM concentration in 100% DMSO) a 3-fold serial dilution is made in 96-well plates in 100% DMSO. Then, plates are further diluted 45-fold in M199 medium supplemented with 1% heat-inactivated FBS to obtain a intermediate work stock.
At day 1, RASFs are seeded in 96 well plates (flat bottom, tissue culture treated, Greiner) at a density of 3000 cells/well in complete synovial growth medium (Cell Applications). Day 5, the medium is completely removed from the cells, and replaced by 81 μL of M199 medium supplemented with 1% heat-inactivated FBS followed by addition of 10 μL compound out of the intermediate work stock. After an incubation period of 90 minutes, which allows the compounds to equilibrate and enter the cells, cells are stimulated with either TNF-α or ‘complex trigger’. TNF-α trigger is added in a volume of […] to obtain final concentration of 10 ng/mL. For that, TNF-α stock (PeproTech) at 10 μg/mL was diluted to 100 ng/mL TNF-a in M199 medium supplemented with 1% FBS. ‘Complex trigger’ mix is added in a volume of 20 μL to obtain a final concentration of 12.5%. For that, ‘complex trigger’ mix, is diluted to 80% with M199 medium supplemented with 1% FBS. […]
On the technique in general: In an ELISA, binding on a coated surface is turned into a signal by an enzyme label.

Another assay has as its target T1, TAK1-TAB1 fusion protein (Homo sapiens, UniProt O43318).
T1 construct: purchased Upstate 14-600
T1 sequence (O43318 with tags, fused parts or gaps limits assumed): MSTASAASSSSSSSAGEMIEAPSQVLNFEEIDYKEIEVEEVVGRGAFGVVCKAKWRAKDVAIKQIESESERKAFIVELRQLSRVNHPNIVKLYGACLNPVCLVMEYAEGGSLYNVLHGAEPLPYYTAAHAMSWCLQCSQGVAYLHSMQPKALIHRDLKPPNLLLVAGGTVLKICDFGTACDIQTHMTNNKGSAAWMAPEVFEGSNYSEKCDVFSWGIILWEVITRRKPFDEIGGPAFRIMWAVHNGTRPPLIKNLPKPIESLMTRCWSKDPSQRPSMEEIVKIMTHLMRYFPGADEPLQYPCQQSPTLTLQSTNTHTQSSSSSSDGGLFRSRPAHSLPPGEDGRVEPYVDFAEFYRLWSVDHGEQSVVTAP
Kind of assay: In vitro TAK1 kinase assay. It counts as biochemical. Particulars: casein substrate, [33P]-γ-ATP, 90 minutes at 30° C., semi-quantitative score, read-out: POTENCY TAK1 (MAP3K7). As for the experimental part: For assessing TAK1 inhibition, active TAK1-TAB1 fusion protein was used from Upstate (Cat. No, 14-600). Kinase reactions are set up in 96-well polypropylene plates in 25 μL containing 0.5 mU TAK1-TAB1 fusion protein, 5mM ATP, 0.01 μCi/μL [^33P]-γ-ATP, 0.1 mg/mL casein substrate in 1× reaction buffer containing 10 mM MOPS pH 7.0, 1 mM EDTA.
Starting from the compound master stocks (all at 10 mM concentration in 100% DMSO) a 3-fold serial dilution is made in 96-well plates in 100% DMSO. Plates are further diluted […] in H2O containing 3.5% DMSO, to obtain an intermediate work stock with compounds at 5× the final assay concentration in 5% DMSO.
5 μL of the intermediate stock is transferred into V-bottom 96 well polypropylene plates and 11 μL of Enzyme mix is added. Enzyme mix is made by combining 5 μL 5× reaction buffer ([…] pH 7.0, 1 mM EDTA), 5 μL casein (Sigma) diluted in H20 to 0.5 mg/mL and 1 μL of TAK1-TAB1 fusion protein that was prediluted to 0.5 mU/μL in 1× enzyme dilution buffer (20 mM MOPS pH 7.0, 0.1 mM EDTA, 0.01% Brij-35, 5% glycerol, 1 mM DTT, 1 mg/ml BSA).
The reactions are started by the addition of 9 μL of mixture containing ATP (20.83 uM) and [^33P]-γ-ATP (0.028 μCi/μL).
The assay is stopped 90 minutes after incubation at 30° C. by the addition of 25 μL phosphoric acid (150 mM). The label incorporated into the casein substrate is separated from labeled unincorporated ATP by filtration onto 96-well filter plates using a harvester device. After 6 washes with 75 mM phosphoric acid, the bottom of the filter plates are sealed, and incorporated label is quantified after addition of 40 μL scintillation fluid using TopCount.

For the molecule `O=c1cc(-c2ccc(Nc3ccc(N4CCN(C5CCCCC5)CC4)cc3)c3ncnn23)cc[nH]1` [Example 25, 4-(8-{[4-(4-cyclohexylpiperazin-1-yl)phenyl]amino}[1,2,4]triazolo[1,5-a]pyridin-5-yl)pyridin-2(1H)-one], the results for the IC50 (in assay [1]; on TAK1-TAB1 fusion protein) were 1 to 5 µM and < 0.5 µM, respectively.

In the case of `CCN1CCN(c2ccc(Nc3ccc(-c4ccnc(OC)c4)n4ncnc34)cc2)CC1` [Example 26, N-[4-(4-ethylpiperazin-1-yl)phenyl]-5-(2-methoxypyridin-4-yl)[1,2,4]triazolo[1,5-a]pyridin-8-amine], the figures for the IC50 (in assay [1]; on TAK1-TAB1 fusion protein) were 1 to 5 µM and > 10 µM, respectively.

In the case of `CCCN1CCN(c2ccc(Nc3ccc(-c4ccnc(OC)c4)n4ncnc34)cc2)CC1` [Example 27, 5-(2-methoxypyridin-4-yl)-N-[4-(4-propylpiperazin-1-yl)phenyl][1,2,4]triazolo[1,5-a]pyridin-8-amine], the IC50 is 1 to 5 µM in assay [1] and > 10 µM on TAK1-TAB1 fusion protein.

Turning to `CCC(CC)N1CCN(c2ccc(Nc3ccc(-c4ccnc(OC)c4)n4ncnc34)cc2)CC1` [Example 28, N-{4-[4-(1-ethylpropyl)piperazin-1-yl]phenyl}-5-(2-methoxypyridin-4-yl)[1,2,4]triazolo[1,5-a]pyridin-8-amine], the IC50 in assay [1] was 1 to 5 µM; on TAK1-TAB1 fusion protein it was > 10 µM.

For the molecule `COc1cc(-c2ccc(Nc3ccc(N4CCN(CCC(C)C)CC4)cc3)c3ncnn23)ccn1` [Example 29, 5-(2-methoxypyridin-4-yl)-N-{4-[4-(3-methylbutyl)piperazin-1-yl]phenyl}[1,2,4]triazolo[1,5-a]pyridin-8-amine], the IC50 in assay [1] is 1 to 5 µM; on TAK1-TAB1 fusion protein it was > 10 µM.

With `COc1cc(-c2ccc(Nc3ccc(N4CCN(C5CC5)CC4)cc3)c3ncnn23)ccn1` [Example 30, N-[4-(4-cyclopropylpiperazin-1-yl)phenyl]-5-(2-methoxypyridin-4-yl)[1,2,4]triazolo[1,5-a]pyridin-8-amine], the IC50 in assay [1] was 1 to 5 µM; on TAK1-TAB1 fusion protein, > 10 µM.

For `COc1cc(-c2ccc(Nc3ccc(N4CCN(C5CCC5)CC4)cc3)c3ncnn23)ccn1` [Example 31, N-[4-(4-cyclobutylpiperazin-1-yl)phenyl]-5-(2-methoxypyridin-4-yl)[1,2,4]triazolo[1,5-a]pyridin-8-amine], the IC50 in assay [1] is 5 to 10 µM; at TAK1-TAB1 fusion protein it was > 10 µM.

`COc1cc(-c2ccc(Nc3ccc(N4CCN(C5CCCCC5)CC4)cc3)c3ncnn23)ccn1` [Example 32, N-[4-(4-cyclohexylpiperazin-1-yl)phenyl]-5-(2-methoxypyridin-4-yl)[1,2,4]triazolo[1,5-a]pyridin-8-amine]: the values for the IC50 (in assay [1]; at TAK1-TAB1 fusion protein) were 5 to 10 µM and > 10 µM, respectively.

`O=c1cc(-c2ccc(Nc3ccc(N4CCNCC4)cc3)c3ncnn23)cc[nH]1` [Example 33, 4-{8-[(4-piperazin-1-ylphenyl)amino][1,2,4]triazolo[1,5-a]pyridin-5-yl}pyridin-2(1H)-one]: the IC50 in assay [1] was 1 to 5 µM; on TAK1-TAB1 fusion protein, < 0.5 µM.

As for `CCC(CC)N1CCN(c2ccc(Nc3ccc(-c4cn[nH]c4)n4ncnc34)cc2)CC1` [Example 34, N-{4-[4-(1-ethylpropyl)piperazin-1-yl]phenyl}-5-(1H-pyrazol-4-yl)[1,2,4]triazolo[1,5-a]pyridin-8-amine], the IC50 was 1 to 5 µM in assay [1] and < 0.5 µM at TAK1-TAB1 fusion protein.

For `c1nc2c(Nc3ccc(N4CCN(C5CCC5)CC4)cc3)ccc(-c3cn[nH]c3)n2n1` [Example 35, N-[4-(4-cyclobutylpiperazin-1-yl)phenyl]-5-(1H-pyrazol-4-yl)[1,2,4]triazolo[1,5-a]pyridin-8-amine], the IC50 is > 10 µM in assay [1] and < 0.5 µM on TAK1-TAB1 fusion protein.

Consider `NC(=O)c1cccc(-c2ccc(Nc3ccc(N4CCOCC4)cc3)c3ncnn23)c1` [Example 43, 3-{8-[(4-morpholin-4-ylphenyl)amino][1,2,4]triazolo[1,5-a]pyridin-5-yl}benzamide], for which the IC50 (in assay [1]; at TAK1-TAB1 fusion protein) was > 10 µM each time.

Turning to `CC(C)N1CCN(c2ccc(Nc3ccc(-c4cccc(C(N)=O)c4)n4ncnc34)cc2)CC1` [Example 44, 3-(8-{[4-(4-isopropylpiperazin-1-yl)phenyl]amino}[1,2,4]triazolo[1,5-a]pyridin-5-yl)benzamide], the IC50 in assay [1] was 1 to 5 µM; at TAK1-TAB1 fusion protein, > 10 µM.

For the molecule `NC(=O)c1cc(-c2ccc(Nc3ccc(N4CCOCC4)cc3)c3ncnn23)ccc1F` [Example 45, 2-fluoro-5-{8-[(4-morpholin-4-ylphenyl)amino][1,2,4]triazolo[1,5-a]pyridin-5-yl}benzamide], the IC50 (in assay [1]; on TAK1-TAB1 fusion protein) was > 10 µM each time.

As for `CC(C)N1CCN(c2ccc(Nc3ccc(-c4ccc(F)c(C(N)=O)c4)n4ncnc34)cc2)CC1` [Example 46, 2-fluoro-5-(8-{[4-(4-isopropylpiperazin-1-yl)phenyl]amino}[1,2,4]triazolo[1,5-a]pyridin-5-yl)benzamide], the IC50 (in assay [1]; on TAK1-TAB1 fusion protein) was > 10 µM in each case.
